Reference: article PMC11497058, “Ginsenoside Rg3 Restores Mitochondrial Cardiolipin Homeostasis via GRB2 to Prevent Parkinson's Disease” (Advanced Science, 2024)
Counter-ions that a name gives are not always drawn.

These compounds were tested against T1, Growth Factor Receptor-Bound Protein 2 (GRB2) (Homo sapiens, UniProt P62993) (assay: bio-layer interferometry (ForteBio Octet); supported by thermal shift assay (CETSA) and LiP-SMap).
T1 construct: Recombinant His-tagged GRB2 (pET-28a, E. coli)
Format: binding

SMILES	Kd [nM]
CC(C)=CCC[C@](C)(O)[C@H]1CC[C@]2(C)[C@@H]1[C@H](O)C[C@@H]1[C@@]3(C)CC[C@H](O[C@@H]4O[C@H](CO)[C@@H](O)[C@H](O)[C@H]4O[C@@H]4O[C@H](CO)[C@@H](O)[C@H](O)[C@H]4O)C(C)(C)[C@@H]3CC[C@]12C [Rg3, Ginsenoside Rg3]	869

These compounds were tested against GRB2 (Homo sapiens, UniProt P62993) (assay: biochemical).
Design: Surface plasmon resonance screen of compounds binding to GRB2, KD
Text: To further validate the universal impact of TRKA‐GRB2 axis‐targeted molecular in enhancing CL expression and ameliorating PD, we employed Surface Plasmon Resonance (SPR) technology^[ [58] ^] to screen compounds that bind to GRB2 (Figure 8a). Subsequently, we identified 11 compounds with a KD value at the […] (Table S9, Supporting Information). The viability of SH‐SY5Y cells exposed to mpp+ or 6‐OHDA increased upon treatment with TDF and [compound left out] (Figure S13a and b, Supporting Information). TDF acts as a prodrug of tenofovir, a nucleotide reverse transcriptase inhibitor.^[ [59] ^] On the other hand, [compound left out] is specially formulated for ophthalmological steroid‐based treatments.^[ [60] ^] Considering its oral administration capability, we selected TDF for further research (Figure S13c and d, Supporting Information). TDF facilitated the clearance of overexpressed A53T‐αSyn in SH‐SY5Y cells (Figure S13e and f, Supporting Information) and promoted the interaction between GRB2 and TRKA without affecting the interaction between GRB2 and EGFR in these cells (Figure 8b–d). Treatment with TDF enhanced CRLS1 expression and restored the decreased mitochondrial CL levels caused by A53T‐αSyn in SH‐SY5Y cells. However, knockdown of GRB2 or TRKA in SH‐SY5Y cells attenuated TDF‐induced effect (Figure 8e–g). Moreover, TDF increased TRKA phosphorylation, ERK phosphorylation, and CRLS1 expression, while GW441756 […] these changes (Figure S13g–j, Supporting Information). When SCH772984 was employed, it blocked the ability of TDF to increase ERK phosphorylation and CRLS1 expression (Figure S13k–m, Supporting Information). The impairment of exercise ability was alleviated following TDF (80 mg kg^−1) treatment, resulting in an increase in the distance travelled by A53T‐αSyn‐treated mice (Figure 8h,i). […] Western blotting was performed to evaluate the expression of TRKA and EGFR in cell lysates immunoprecipitated with an anti‐GRB2 antibody (b). Quantification of TRKA levels (c) and EGFR levels (d). e,f) Representative western blot images of CRLS1, GRB2, TRKA in SH‐SY5Y cells treated with TDF (10 µM) or DMSO (0.1%) for 24 h after transfection with Scramble, GRB2 or TRKA siRNAs for 24 h. Quantification of CRLS1 levels (f). g) SH‐SY5Y cells were treated with TDF (10 µM) or DMSO (0.1%) for 24 h after transfection with Scramble, GRB2 or TRKA siRNAs for 24 h. Quantification of mitochondrial CL in SH‐SY5Y cells. Three independent experiments per condition were performed in (b–g). h) Movement track in the open field test. i) Total distance travelled in the open field. j) Time required to descend the pole. k) Time required to fall off the rotarod. (n = 10 mice per group in (h–k). l) Immunohistochemical staining of TH^+ neurons (scale bar = 100 µm). m) Quantification of TH^+ neurons. (n = 3 mice per group in l, m). Data are normalised to those of the DMSO group (c,d) and the Scramble_DMSO group (f). Mean ± standard error of the mean is presented. *p < 0.05, **p < 0.01, ***p < 0.001, ****p < 0.0001, ns, not significant. Student's two‐tailed unpaired t‐test (c,d), two‐way ANOVA with Sidak's multiple comparisons test (f,g,i,j,k and m). Source data are provided in the Source Data file.

SMILES	Kd [nM]
CCCC(=O)O[C@]1(C(=O)CCl)[C@@H](C)C[C@H]2[C@@H]3CCC4=CC(=O)C=C[C@]4(C)[C@@]3(F)C(=O)C[C@@]21C [Clobetasone butyrate]	100
NC(=O)N1c2ccccc2CC(=O)c2ccccc21 [Oxcarbazepine]	241
C/C(=C\CO)CCC[C@H](C)CCC[C@H](C)CCCC(C)C [Phytol]	1470
CC(C)N(CCNC(=O)CN1CCCC1=O)C(C)C [Pramiracetam]	99.6

The remaining lines, values ahead:

Kd [nM]	SMILES
3730	O=C(O)c1ccc2nc(-c3cc(Cl)cc(Cl)c3)oc2c1 [tafamidis]
262	O=C1c2ccccc2-c2n[nH]c3cccc1c23 [SP600125]
192	COC(c1ccccc1)(c1ccccc1)[C@H](Oc1nc(C)cc(C)n1)C(=O)O [Ambrisentan]
160	CC(N)C12CC3CC(CC(C3)C1)C2 (centres unmarked) [Rimantadine]
74.3	CC(C)OC(=O)OCOP(=O)(CO[C@H](C)Cn1cnc2c(N)ncnc21)OCOC(=O)OC(C)C [TDF, Tenofovir Disoproxil Fumarate]
15.2	Nc1nc(=O)n([C@@H]2CS[C@H](CO)O2)cc1F [Emtricitabine]
